From patent publication EP4810508A1, “ARABINOSE DERIVATIVE COMPOUND, AND COMPOSITION COMPRISING SAME FOR PREVENTING OR TREATING DEGENERATIVE BRAIN DISEASES” (Digmbio. Inc., priority 2023, dated 2025)
Like-named read-outs stand apart in the source and are kept apart here.

How the values were obtained:
HRE/Luc/HEK293 cells = assay: HRE (Hypoxia Response Element) luciferase assay; assay type: cell-based, human; conditions: for fold induction at 10 µM / fold induction at 100 µM: Homo sapiens, HEK293, fold increase of HRE expression, hypoxic conditions (O2 0.1%) 18 hours, Table 2; for fold induction at 10 µM: read-out: HRE-increasing 10uM; for fold induction at 100 µM: read-out: HRE-increasing 100uM; for HRE assay: increase in HRE expression levels by the test substance relative to the vehicle in HRE/Luc/HEK293 cells; for HRE expression: concentration of 10 µM
Procedure, shortened: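 HRE-luciferase HEK293 cells in MEM/10% FBS pretreated with compound 6 h, then held under hypoxia (0.1% O2) 18 h; luminescence read after lysis. Scored as fold increase over vehicle, with twofold threshold at 100, 10 or 1 µM.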

male ICR mice [1] = assay: Scopolamine-induced cognitive impairment model: Y-maze test; assay type: in vivo; conditions: for percent recovery of cognitive function (Y-maze) at 50 mg/kg: Mus musculus, po, 168 h; for in vivo Y-maze (%): spontaneous alternation, scopolamine 1 mg/kg i.p., compounds 50 mg/kg oral for 7 days, donepezil 5 mg/kg (avg.)
Source text: (§1) A memory loss rodent animal model induced by scopolamine intraperitoneal administration is used, and an evaluation method for memory uses a Y-maze test and a passive avoidance test (PAT). Scopolamine is a representative experimental model showing an impairment of cognitive function similar to AD patients by blocking neurotransmitters when administered to an animal as an antagonist of a muscarinic acetylcholine receptor, and as a cognitive function evaluation technique, a Y-maze test and a passive avoidance experiment, which are general and representative methods, were used, and in order to objectify the efficacy levels of the compounds, a group administered with donepezil (Aricept, Eisa) as a positive control material was separately provided to compare the efficacy levels of the compounds.
(§2) In order to evaluate cognitive function, 5-week-old male ICR mice were used, the compounds to be evaluated were prepared at a dose of 50 mg/kg/ml and repeatedly orally administered at a predetermined time for 7 days, and the positive control material was carried out at 5 mg/kg/ml. After the last administration, after 30 minutes of intraperitoneal administration of 1 mg/kg/2 ml of scopolamine, a Y-maze test and a passive avoidance test, which are cognitive function evaluations, were performed.
The Y-maze test is a method for evaluating the ability to sequentially act as an experiment for measuring short-term memory. The measurement equipment is composed of three branches, each branch has a length of 42 cm, a width of 3 cm, and a height of 12 cm, and an angle at which three branches are folded is 120°. Experimental animals are put into each branch for 8 minutes, and the number of times of entering the branches to the tail of the experimental animal and the case of being sequentially received in each branch are scored (actual alternation). The alternation behavior is defined as entering not to overlap all three, and is calculated by the following equation. [formula]

male ICR mice [2] = assay: Scopolamine-induced cognitive impairment model: passive avoidance test (PAT); assay type: in vivo; conditions: for percent recovery of memory in passive avoidance test (normal group = 100, scopolamine control = 0) at 50 mg/kg: Mus musculus, po, 168 h, read-out: in vivo(effect) PAT (%); for in vivo PAT: time staying in bright room (step-through latency), scopolamine 1 mg/kg i.p., compounds 50 mg/kg oral for 7 days, donepezil 5 mg/kg (avg.); for cognitive function recovery compared to normal animals, passive avoidance test (effect %): compounds 50 mg/kg, donepezil 5 mg/kg, orally for 7 days, scopolamine 1 mg/kg intraperitoneal
Source text: as §1, §2
In addition, the passive avoidance test was conducted using an avoidance learning box (Jeondo B&P, Korea, Seoul), and the avoidance learning box is divided into a dark room and a bright room, and when a laboratory animal is put into a bright room, the subject goes beyond the dark room. At the moment, an electric shock of 0.5 mA is applied for 5 seconds, and when the next day experimental animal is put back into a bright room, an electric shock in a dark room is memorized and stay in a bright room. In this case, a step-through latency is measured to evaluate memory. The efficacy of the compounds of the present invention against the normal group and the control group in the Y-maze test and the passive avoidance test was described in the following Table 3 (Scopolamine-induced cognitive impairment model result).

[3] = read-out: in vivo(effect) Y-maze (%)
[4] = read-out: cognitive function recovery compared to normal animals, Y-maze experiment (effect %)

SMILES	fold induction at 10 µM (HRE/Luc/HEK293 cells)	fold induction at 100 µM (HRE/Luc/HEK293 cells)	HRE assay (HRE/Luc/HEK293 cells)	percent recovery of cognitive function (Y-maze) at 50 mg/kg (male ICR mice [1]; [3]) [%]	in vivo Y-maze (%) (male ICR mice [1])	percent recovery of memory in passive avoidance test (normal group = 100, scopolamine control = 0) at 50 mg/kg (male ICR mice [2]) [%]	in vivo PAT (male ICR mice [2]) [s]	HRE expression (HRE/Luc/HEK293 cells)	percent recovery of cognitive function (Y-maze) at 50 mg/kg (male ICR mice [1]; [4]) [%]	cognitive function recovery compared to normal animals, passive avoidance test (effect %) (male ICR mice [2]) [%]
COc1ccc(Cc2ccc(O[C@H]3O[C@@H](C)[C@@H](O)[C@@H](O)[C@@H]3O)cc2)cc1 [Example 6, (2R,3S,4R,5S,6S)-2-(4-(4-methoxybenzyl)phenoxy)-6-methyltetrahydro-2H-pyran-3,4,5-triol]	< 1	1.5	•	-6	53	10	109			
CC(C)c1ccc(Cc2ccc(O[C@H]3OC[C@H](O)[C@H](O)[C@H]3O)cc2)cc1 [Example 7, (2R,3R,4S,5S)-2-(4-(4-isopropylbenzyl)phenoxy)tetrahydro-2H-pyran-3,4,5-triol]	3.5	< 1	•••	57	65	73	179	more than threefold	≥ 50	≥ 50
CC(C)c1ccc(Cc2ccc(O[C@H]3OC[C@H](O)[C@H](O)[C@H]3O)c(Cl)c2)cc1 [Example 8, (2R,3R,4S,5S)-2-(2-chloro-4-(4-isopropylbenzyl)phenoxy)tetrahydro-2H-pyran-3,4,5-triol]	4.2		•••	43	58	11	58	more than threefold		
O[C@@H]1[C@@H](O)[C@@H](Oc2ccc(Cc3ccc(Oc4ccccc4)cc3)cc2)OC[C@@H]1O [Example 9, (2R,3R,4S,5S)-2-(4-(4-phenoxybenzyl)phenoxy) tetrahydro-2H-pyran-3,4,5-triol]	1.2	< 1	•	9	57	32	127			
O[C@@H]1[C@@H](O)[C@@H](Oc2ccc(Cc3ccc(F)cc3)cc2)OC[C@@H]1O [Example 13, (2R,3R,4S,5S)-2-(4-(4-fluorobenzyl)phenoxy)tetrahydro-2H-pyran-3,4,5-triol]	1.4	2.4	••	17	57	37	149			
O[C@@H]1[C@@H](O)[C@@H](Oc2ccc(Cc3ccc(Cl)cc3)cc2)OC[C@@H]1O [Example 14, (2R,3R,4S,5S)-2-(4-(4-chlorobenzyl)phenoxy)tetrahydro-2H-pyran-3,4,5-triol]	1.9	2.5	••	7	57	33	129			
COc1cccc(Cc2ccc(O[C@H]3OC[C@H](O)[C@H](O)[C@H]3O)cc2)c1 [Example 15, (2R,3R,4S,5S)-2-(4-(3-methoxybenzyl)phenoxy)tetrahydro-2H-pyran-3,4,5-triol]	1.1	2.2		66	66	30	142		≥ 50	
COc1ccc2cc(Cc3ccc(O[C@H]4OC[C@H](O)[C@H](O)[C@H]4O)cc3)ccc2c1 [Example 20, ((2R,3R,4S,5S)-2-(4-(6-methoxynaphthalen-2-yl)methyl)phenoxy)tetrahydro-2H-pyran-3,4,5-triol]	1	1.1		61	69	38	142		≥ 50	
O[C@@H]1[C@@H](O)[C@@H](Oc2ccc(CC3CCCCC3)cc2)OC[C@@H]1O [Example 22, (2R,3R,4S,5S)-2-(4-(cyclohexylmethyl)phenoxy)tetrahydro-2H-pyran-3,4,5-triol]	2.5	2.8		56	65	36	145		≥ 50	
O[C@@H]1[C@@H](O)[C@@H](Oc2ccc(Cc3ccsc3)cc2)OC[C@@H]1O [Example 23, (2R,3R,4S,5S)-2-(4-(thiophen-3-ylmethyl)phenoxy)tetrahydro-2H-pyran-3,4,5-triol]	1.6	2.7		41	59	22	87			
CC(C)c1ccc(Cc2ccc(S[C@H]3OC[C@H](O)[C@H](O)C3O)cc2)cc1 (stereo partly drawn) [Example 27, (2R,4S,5S)-2-((4-(4-isopropylbenzyl)phenyl)thio) tetrahydro-2H-pyran-3,4,5-triol]	3.7	< 1		44	62	28	80	more than threefold		
COc1ccc(C(C)(C)c2ccc(O[C@H]3OC[C@H](O)[C@H](O)[C@H]3O)cc2)cc1 [Example 30, (2R,3R,4S,5S)-2-(4-(2-(4-methoxyphenyl)propan-2-yl)phenoxy)tetrahydro-2H-pyran-3,4,5-triol]	1.1	1.4		45	63	60	194			≥ 50
CCOc1ccc(C(C)(C)c2ccc(O[C@H]3OC[C@H](O)[C@H](O)[C@H]3O)cc2)cc1 [Example 31, (2R,3R,4S,5S)-2-(4-(2-(4-ethoxyphenyl)propan-2-yl)phenoxy)tetrahydro-2H-pyran-3,4,5-triol]	1.1	1.6		71	68	65	204		≥ 50	≥ 50
Cc1ccc(Oc2ccc(O[C@H]3OC[C@H](O)[C@H](O)[C@H]3O)cc2)cc1 [Example 33, (2R,3R,4S,5S)-2-(4-(para-tolyloxy)phenoxy) tetrahydro-2H-pyran-3,4,5-triol]	3.8	2.5		30	56	10	58	more than threefold		
